According to ChEMBL document CHEMBL1201862, “PubChem BioAssay data set” (2004):
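Cultured in 96-well plates, cells were exposed to test compound for 48 hours across five concentrations. At the GI50, growth is halved.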 Calls of active or inactive are those of the source. Cut-off read from the data, not from the text of the source: active = GI50 up to about 1.1 µM and inactive = higher.

Experiments:
Assay in all cases: DTP human tumour cell line panel, 48 h
IGROV-1 = tested on: IGROV-1
DLD-1 = tested on: DLD-1
CAKI-1 = tested on: CAKI-1
HCT-116 = tested on: HCT-116
U-251 = tested on: U-251
786-0 = tested on: 786-0
A498 = tested on: A498
OVCAR-4 = tested on: OVCAR-4
UACC-62 = tested on: UACC-62
SW-620 = tested on: SW-620
K562 = tested on: K562
COLO 205 = tested on: COLO 205
SR = tested on: SR
KM-20L2 = tested on: KM-20L2
SN12C = tested on: SN12C
EKVX = tested on: EKVX
NCI-H460 = tested on: NCI-H460
A549 = tested on: A549

Measured: GI50

O=[N+]([O-])c1cccnc1S(=O)(=O)c1ccccc1
inactive: IGROV-1 8.13 µM | DLD-1 2.49 µM | CAKI-1 2.9 µM | HCT-116 6.93 µM | U-251 8.95 µM | 786-0 2.48 µM | A498 22.1 µM | OVCAR-4 6.47 µM | UACC-62 11.6 µM | SW-620 3.27 µM | K562 3.45 µM | COLO 205 5.97 µM | SR 3.99 µM | KM-20L2 12.8 µM | SN12C 9.2 µM | EKVX 6.4 µM | NCI-H460 13.9 µM | A549 21.8 µM

Nc1ccn([C@@H]2C[C@H](CO)[C@@H](O)[C@H]2O)c(=O)n1
inactive: IGROV-1 > 57.7 µM | DLD-1 > 57.7 µM | CAKI-1 > 57.7 µM | HCT-116 > 57.7 µM | U-251 > 57.7 µM | 786-0 > 57.7 µM | A498 > 57.7 µM | OVCAR-4 > 57.7 µM | UACC-62 > 57.7 µM | SW-620 > 57.7 µM | K562 > 57.7 µM | COLO 205 > 57.7 µM | SR > 57.7 µM | KM-20L2 > 57.7 µM | SN12C > 57.7 µM | EKVX > 57.7 µM | NCI-H460 > 57.7 µM | A549 > 57.7 µM

C=C=C(CC)C(C(=O)OC)N(CC)CC (configuration not stated)
inactive: IGROV-1 > 100 µM | DLD-1 > 100 µM | CAKI-1 > 100 µM | HCT-116 > 100 µM | U-251 > 100 µM | 786-0 > 100 µM | A498 > 100 µM | OVCAR-4 > 100 µM | UACC-62 > 100 µM | SW-620 > 100 µM | K562 > 100 µM | COLO 205 > 100 µM | SR > 100 µM | KM-20L2 > 100 µM | SN12C > 100 µM | EKVX > 100 µM | NCI-H460 > 100 µM | A549 > 100 µM

CC(C)(C)c1ccc2c(c1)C(O)(c1ccccc1)c1cc(C(C)(C)C)ccc1C2(O)C(F)(F)F (configuration not stated)
inactive: IGROV-1 2.15 µM | DLD-1 2.03 µM | CAKI-1 1.74 µM | HCT-116 1.87 µM | U-251 1.81 µM | 786-0 1.88 µM | A498 1.83 µM | OVCAR-4 1.83 µM | UACC-62 1.63 µM | SW-620 1.88 µM | K562 2.56 µM | COLO 205 1.82 µM | SR 2.13 µM | KM-20L2 1.59 µM | SN12C 1.76 µM | EKVX 3.03 µM | NCI-H460 1.61 µM | A549 1.88 µM
